Measured values as given in patent US20240158446A1, “CYCLIC COMPOUND HAVING SELECTIVE INHIBITORY ACTION ON KRAS OVER HRAS AND NRAS” (CHUGAI SEIYAKU KABUSHIKI KAISHA, priority 2021, published 2024).
*1 amine or outer side, *2 acyl side, *3 side chain or, on linkers, in order; H or OH if unused. Where a SMILES comes first, the peptide text is derived from it. Bridges are numbered along the chain shown (N, C = ends). [ ]: non-standard residue; d: D form. The star is where a group is joined. hPhe(3-Cl-4-CF3) = N[C@@H](CCc1ccc(C(F)(F)F)c(Cl)c1)C(=O)O; NPrPhe(4-CF3) = CCCN[C@@H](Cc1ccc(C(F)(F)F)cc1)C(=O)O; NEtAsp = CCN([C@@H](CC(=O)[*:3])C(=O)[*:2])[*:1]; NMeGly(cPent) = CN[C@H](C(=O)O)C1CCCC1; NMeI = CC[C@H](C)[C@H](NC)C(=O)O; NMeD = CN[C@@H](CC(=O)O)C(=O)O; NMeL = CN[C@@H](CC(C)C)C(=O)O; Morpholide = C1CN(*)CCO1; NMeA = CN[C@@H](C)C(=O)O; Ac5c = NC1(C(=O)O)CCCC1; Aze = O=C(O)[C@@H]1CCN1; Ac4c = NC1(C(=O)O)CCC1; Sar = CNCC(=O)O

What was measured:
[1] = biological target: GDP-bound KRAS wild-type protein (Homo sapiens, UniProt P01116); test: Binding to KRAS by surface plasmon resonance (SPR), Single Cycle Kinetics; conditions: SPR, Single Cycle Kinetics, GDP-bound KRAS wild-type protein; read-out: KRAS KD
[2] = biological target: GDP-bound NRAS wild-type protein (Homo sapiens, UniProt P01111); test: Binding to NRAS by surface plasmon resonance (SPR), Single Cycle Kinetics; conditions: ratio of KD for GDP-bound NRAS wild-type protein to KD for KRAS, SPR
[3] = biological target: GDP-bound HRAS wild-type protein (Homo sapiens, UniProt P01112); test: Binding to HRAS by surface plasmon resonance (SPR), Single Cycle Kinetics; conditions: ratio of KD for GDP-bound HRAS wild-type protein to KD for KRAS, SPR
[4] = system: human lung cancer strain NCI-H441; test: cells; conditions: NCI-H441, 96 h, read-out: NCI-H441 IC50 (nM), NCI-H441 cell proliferation, 4 days, CellTiter-Glo;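 note: cell proliferation inhibition after four days measured by CellTiter-Glo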

Chain of GDP-bound NRAS wild-type protein (P01111 whole entry): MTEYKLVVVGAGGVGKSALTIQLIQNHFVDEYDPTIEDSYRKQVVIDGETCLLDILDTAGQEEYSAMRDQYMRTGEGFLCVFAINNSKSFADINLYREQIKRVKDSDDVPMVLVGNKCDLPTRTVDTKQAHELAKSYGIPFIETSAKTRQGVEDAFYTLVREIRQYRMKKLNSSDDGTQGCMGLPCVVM
Chain of GDP-bound KRAS wild-type protein (P01116 whole entry): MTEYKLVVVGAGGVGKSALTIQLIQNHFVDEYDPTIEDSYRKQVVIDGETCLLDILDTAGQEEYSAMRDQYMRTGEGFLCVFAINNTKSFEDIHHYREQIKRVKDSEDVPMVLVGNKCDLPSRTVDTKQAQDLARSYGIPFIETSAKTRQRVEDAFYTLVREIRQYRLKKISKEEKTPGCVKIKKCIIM
Chain of GDP-bound HRAS wild-type protein (P01112 whole entry): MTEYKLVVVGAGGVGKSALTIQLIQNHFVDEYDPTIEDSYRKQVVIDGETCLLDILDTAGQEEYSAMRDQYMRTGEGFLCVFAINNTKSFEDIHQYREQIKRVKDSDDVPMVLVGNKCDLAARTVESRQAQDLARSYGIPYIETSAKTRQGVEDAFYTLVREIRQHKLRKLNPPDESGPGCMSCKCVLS

Row | SMILES | Kd [1] [nM] | NRAS/KRAS (KD ratio) [2] | HRAS/KRAS (KD ratio) [3] | IC50 [4] [nM]
1 | CCO[C@@H]1C[C@H]2C(=O)NC3(CC(C)(C)C3)C(=O)N(C)[C@@H](C3CCCC3)C(=O)N(C)[C@H](C(=O)N(C)CC)CC(=O)N(C)[C@@H](CC)C(=O)N[C@@H]([C@@H](C)CC)C(=O)N(C)CC(=O)N(C)[C@H]3C/C=C\CCN(C3=O)[C@@H](Cc3ccc(C(F)(F)F)cc3)C(=O)N(C)CC(=O)N[C@@H](CCc3ccc(C(F)(F)F)c(OC)c3)C(=O)N2C1 [PP1653] | 0.097 | A (a compound having 10 or more and less than 20 is denoted as A) | A (a compound having 10 or more and less than 20 is denoted as A) | 1.6
2 | CCOC[C@H]1C(=O)N[C@@H]([C@@H](C)CC)C(=O)N(C)CC(=O)N(C)[C@H]2C/C=C\CCN(C2=O)[C@@H](Cc2ccc(C(F)(F)F)cc2)C(=O)N(C)CC(=O)N[C@@H](CCc2cc(F)c(C(F)(F)F)c(F)c2)C(=O)N2C[C@H](OCC)C[C@H]2C(=O)NC2(CC(C)(C)C2)C(=O)N(C)[C@@H](C2CCCC2)C(=O)N(C)[C@H](C(=O)N(C)CC)CC(=O)N1C [PP2032] | 0.061 | A (a compound having 10 or more and less than 20 is denoted as A) | B (a compound having 3 or more and less than 10 is denoted as B) | 8.1
3 | CCO[C@@H]1C[C@H]2C(=O)N(C)C3(CCC3)C(=O)N(C)[C@@H](C3CCCC3)C(=O)N(C)[C@H](C(=O)N(C)C)CC(=O)N(C)[C@@H](CC3CC3)C(=O)N[C@@H]([C@@H](C)CC)C(=O)N3CCC[C@H]3C(=O)N(C)[C@H]3C/C=C\CCN(C3=O)[C@@H](Cc3ccc(C)cc3)C(=O)N(C)CC(=O)N[C@@H](CCc3cc(F)c(C(F)(F)F)c(F)c3)C(=O)N2C1 [PP1797] | 0.1 | A (a compound having 10 or more and less than 20 is denoted as A) | A (a compound having 10 or more and less than 20 is denoted as A) | 5.1
4 | CCCN(C)C(=O)[C@@H]1CC(=O)N(C)[C@@H](CC(F)(F)F)C(=O)N[C@@H]([C@@H](C)CC)C(=O)N(C)CC(=O)N(C)[C@H]2C/C=C\CCN(C2=O)[C@@H](Cc2ccc(C(F)(F)F)cc2)C(=O)N(C)CC(=O)N[C@@H](CCc2cc(F)c(C(F)(F)F)c(F)c2)C(=O)N2C[C@H](OCC)C[C@H]2C(=O)NC2(CC(F)(F)C2)C(=O)N(C)[C@@H](C2CCCC2)C(=O)N1C [PP1734] | 0.17 | A (a compound having 10 or more and less than 20 is denoted as A) | A (a compound having 10 or more and less than 20 is denoted as A) | 4.4
5 | CCO[C@@H]1C[C@H]2C(=O)NC3(CC(C)(C)C3)C(=O)N(C)[C@@H](C3CCCC3)C(=O)N(C)[C@H](C3CCC3)CC(=O)N(C)[C@@H](CC3CC3)C(=O)N[C@@H]([C@@H](C)CC)C(=O)N(C)CC(=O)N(C)[C@H]3C/C=C\CCN(C3=O)[C@@H](Cc3ccc(C(F)(F)F)cc3)C(=O)N(C)CC(=O)N[C@@H](CCc3cc(F)c(C(F)(F)F)c(F)c3)C(=O)N2C1 [PP1635] | 0.64 | B (a compound having 3 or more and less than 10 is denoted as B) | A (a compound having 10 or more and less than 20 is denoted as A) | 36.3
6 | CC[C@H](C)[C@@H]1NC(=O)[C@H](C2CC2)N(C)C(=O)C[C@@H](C(=O)N(C)C)N(C)C(=O)[C@H](C2CCCC2)N(C)C(=O)C2(CCCC2)N(C)C(=O)[C@@H]2CCCN2C(=O)[C@H](CCc2cc(F)c(C(F)(F)F)c(F)c2)NC(=O)CN(C)C(=O)[C@H](Cc2ccc(C)cc2)N2CC/C=C\C[C@@H](C2=O)N(C)C(=O)CN(C)C1=O [PP1809] | 0.12 | A (a compound having 10 or more and less than 20 is denoted as A) | B (a compound having 3 or more and less than 10 is denoted as B) | 22.4
7 | CCO[C@@H]1C[C@H]2C(=O)NC3(CC(F)(F)C3)C(=O)N(C)[C@@H](C3CCCC3)C(=O)N(C)[C@H](C3CCC3)CC(=O)N(C)[C@@H](CC3CC3)C(=O)N[C@@H]([C@@H](C)CC)C(=O)N(C)CC(=O)N(C)[C@H]3C/C=C\CCN(C3=O)[C@@H](Cc3ccc(C(F)(F)F)cc3)C(=O)N(C)CC(=O)N[C@@H](CCc3cc(F)c(C(F)(F)F)c(F)c3)C(=O)N2C1 [PP1639] | 0.68 | A (a compound having 10 or more and less than 20 is denoted as A) | A (a compound having 10 or more and less than 20 is denoted as A) | 44.8
8 | CCO[C@@H]1C[C@H]2C(=O)NC3(CC(F)(F)C3)C(=O)N(C)[C@@H](C(CC)CC)C(=O)N(C)[C@H](CC)CC(=O)N(C)[C@@H](CC)C(=O)N[C@@H]([C@@H](C)CC)C(=O)N(C)CC(=O)N(C)[C@H]3C/C=C\CCN(C3=O)[C@@H](Cc3ccc(C(F)(F)F)cc3)C(=O)N(C)CC(=O)N[C@@H](CCc3cc(F)c(C(F)(F)F)c(F)c3)C(=O)N2C1 [PP1626] | 3 | A (a compound having 10 or more and less than 20 is denoted as A) | A (a compound having 10 or more and less than 20 is denoted as A) | 108
9 | CCC[C@H]1C(=O)N[C@@H]([C@@H](C)CC)C(=O)N(C)CC(=O)N(C)[C@H]2C/C=C\CCN(C2=O)[C@@H](Cc2ccc(C(F)(F)F)cc2)C(=O)N(C)CC(=O)N[C@@H](CCc2cc(F)c(C(F)(F)F)c(F)c2)C(=O)N2C[C@H](F)C[C@H]2C(=O)NC2(CC(C)(C)C2)C(=O)N(C)[C@@H](C2CCCC2)C(=O)N(C)[C@H](C(=O)N(C)C)CC(=O)N1C [PP1689] | 0.023 | A (a compound having 10 or more and less than 20 is denoted as A) | B (a compound having 3 or more and less than 10 is denoted as B) | 1.4
10 | CCCN1C(=O)CN(C)C(=O)CN(C)C(=O)[C@H]([C@@H](C)CC)NC(=O)[C@H](CC(C)C)N(C)C(=O)C[C@@H](C(=O)N2CCOCC2)N(C)C(=O)[C@H]([C@@H](C)CC)N(C)C(=O)C2(CCCC2)NC(=O)[C@@H]2CCCN2C(=O)[C@H](CCc2ccc(C(F)(F)F)c(Cl)c2)NC(=O)CN(C)C(=O)[C@@H]1Cc1ccc(C(F)(F)F)cc1 [PP1926] ([NMeL]I[Sar][Sar][NPrPhe(4-CF3)][Sar][hPhe(3-Cl-4-CF3)]P[Ac5c][NMeI][NMeD]-Morpholide; lactam N-11) | 0.36 | B (a compound having 3 or more and less than 10 is denoted as B) | B (a compound having 3 or more and less than 10 is denoted as B) | 17.4
11 | CCCN1C(=O)[C@@H]2CCN2C(=O)[C@H](C)N(C)C(=O)[C@H]([C@@H](C)CC)NC(=O)[C@H](CC(C)C)N(C)C(=O)C[C@@H](C(=O)N(C)C)N(CC)C(=O)[C@H](C2CCCC2)N(C)C(=O)C2(CCC2)NC(=O)[C@@H]2CCCN2C(=O)[C@H](CCc2ccc(C(F)(F)F)c(Cl)c2)NC(=O)CN(C)C(=O)[C@@H]1Cc1ccc(C(F)(F)F)cc1 [PP1957] ([NMeL]I[NMeA][Aze][NPrPhe(4-CF3)][Sar][hPhe(3-Cl-4-CF3)]P[Ac4c][NMeGly(cPent)][NEtAsp]-NMe2; lactam N-11) | 0.36 | C (A compound having a KD ratio of 0.1 or more and less than 3 is denoted as C) | B (a compound having 3 or more and less than 10 is denoted as B) | 8.6
12 | CCCN(C)C(=O)[C@@H]1CC(=O)N(C)[C@@H](COC)C(=O)N[C@@H]([C@@H](C)CC)C(=O)N(C)CC(=O)N(C)[C@H]2C/C=C\CCN(C2=O)[C@@H](Cc2ccc(C(F)(F)F)cc2)C(=O)N(C)CC(=O)N[C@@H](CCc2cc(F)c(C(F)(F)F)c(F)c2)C(=O)N2C[C@H](OCC)C[C@H]2C(=O)NC2(CC(C)(C)C2)C(=O)N(C)[C@@H](C2CCCC2)C(=O)N1C [PP1672] | 0.087 | A (a compound having 10 or more and less than 20 is denoted as A) | A (a compound having 10 or more and less than 20 is denoted as A) | 6
13 | CCO[C@@H]1C[C@H]2C(=O)NC3(CCC3)C(=O)N(C)[C@@H](C3CCCC3)C(=O)N(C)[C@H](C(=O)N(C)CC)CC(=O)N(C)[C@@H](CC3CC3)C(=O)N[C@@H]([C@@H](C)CC)C(=O)N(C)CC(=O)N(C)[C@H]3C/C=C\CCN(C3=O)[C@@H](Cc3ccc(C)cc3)C(=O)N(C)CC(=O)N[C@@H](CCc3ccc(C(F)(F)F)c(OC)c3)C(=O)N2C1 [PP1879] | 0.18 | A (a compound having 10 or more and less than 20 is denoted as A) | B (a compound having 3 or more and less than 10 is denoted as B) | 16.9
14 | CCC[C@H]1C(=O)N[C@@H]([C@@H](C)CC)C(=O)N(C)CC(=O)N(C)[C@H]2C/C=C\CCN(C2=O)[C@@H](Cc2ccc(C(F)(F)F)cc2)C(=O)N(C)CC(=O)N[C@@H](CCc2cc(F)c(C(F)(F)F)c(F)c2)C(=O)N2C[C@H](OCC)C[C@H]2C(=O)NC2(CC(C)(C)C2)C(=O)N(C)[C@@H]([C@@H](C)CC)C(=O)N(C)[C@H](C(=O)N(C)C)CC(=O)N1C [PP1941] | 0.17 | A (a compound having 10 or more and less than 20 is denoted as A) | A (a compound having 10 or more and less than 20 is denoted as A) | 9.2
15 | CC[C@H](C)[C@@H]1NC(=O)[C@H](CCOC)N(C)C(=O)C[C@@H](C(=O)N(C)CC)N(C)C(=O)[C@H](C2CCCC2)N(C)C(=O)C2(CC(C)(C)C2)NC(=O)[C@@H]2C[C@H](C)CN2C(=O)[C@H](CCc2cc(F)c(C(F)(F)F)c(F)c2)NC(=O)CN(C)C(=O)[C@H](Cc2ccc(C(F)(F)F)cc2)N2CC/C=C\C[C@@H](C2=O)N(C)C(=O)CN(C)C1=O [PP1972] | 0.15 | A (a compound having 10 or more and less than 20 is denoted as A) | A (a compound having 10 or more and less than 20 is denoted as A) | 13.2
